Assay results taken from the supplement of paper PMC10307832.

Assays:
Test in all cases: relative viability (nuclei count vs DMSO), 5 days (fraction); higher = more cells survive
[1] = compound: C1=CC=C(C(=C1)C2=CC=C(C=C2)C3=CSC4=C3C(=C(C(=O)N4)C#N)O)O + Nc1nc2[nH]cc(CCc3ccc(C(=O)N[C@@H](CCC(=O)O)C(=O)O)cc3)c2c(=O)[nH]1 [Pemetrexed] (partner 0.2 µM)
In short: (§1)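 Relative viability is defined as nuclei in treated wells over nuclei in vehicle wells. Duplicate plates were run and medians reported. Lung cancer cell lines in 1536-well plates were dosed by pin tool one day after seeding, with one drug or with a fixed anchor-drug dose plus five library-drug doses (not always all listed) in √10 steps, and nuclei were counted after 5 days.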

TGX 221 + Bortezomib = compound: CC1=CN2C(=O)C=C(N=C2C(=C1)C(C)NC3=CC=CC=C3)N4CCOCC4 [TGX 221] + CC(C)C[C@H](NC(=O)[C@H](Cc1ccccc1)NC(=O)c1cnccn1)B(O)O [Bortezomib] (partner 0.002 µM)
In short: as §1

TGX 221 + Luminespib = compound: CC1=CN2C(=O)C=C(N=C2C(=C1)C(C)NC3=CC=CC=C3)N4CCOCC4 [TGX 221] + CCNC(=O)c1noc(-c2cc(C(C)C)c(O)cc2O)c1-c1ccc(CN2CCOCC2)cc1 [Luminespib] (partner 0.01 µM)
In short: as §1

[2] = compound: O=C(CCCCCCNC(=O)c1cnc(N(c2ccccc2)c2ccccc2)nc1)NO [Ricolinostat] + CCNC(=O)c1noc(-c2cc(C(C)C)c(O)cc2O)c1-c1ccc(CN2CCOCC2)cc1 [Luminespib] (partner 0.01 µM)
In short: as §1

Row | Cell Line | relative viability ([1]; first compound 0.08 µM) | relative viability ([1]; first compound 0.253 µM) | relative viability ([1]; first compound 0.8 µM) | relative viability ([1]; first compound 2.53 µM) | relative viability ([1]; first compound 8 µM) | relative viability (TGX 221 + Bortezomib; first compound 0.08 µM) | relative viability (TGX 221 + Bortezomib; first compound 0.253 µM) | relative viability (TGX 221 + Bortezomib; first compound 0.8 µM) | relative viability (TGX 221 + Bortezomib; first compound 2.53 µM) | relative viability (TGX 221 + Bortezomib; first compound 8 µM) | relative viability (TGX 221 + Luminespib; first compound 0.08 µM) | relative viability (TGX 221 + Luminespib; first compound 0.253 µM) | relative viability (TGX 221 + Luminespib; first compound 0.8 µM) | relative viability (TGX 221 + Luminespib; first compound 2.53 µM) | relative viability (TGX 221 + Luminespib; first compound 8 µM) | relative viability ([2]; first compound 0.08 µM) | relative viability ([2]; first compound 0.253 µM) | relative viability ([2]; first compound 0.8 µM) | relative viability ([2]; first compound 2.53 µM)
1 | HOP-62 | 0.364 | 0.336 | 0.301 | 0.348 | 0.279 | 0.605 | 0.85 | 0.788 | 0.847 | 0.93 | 0.919 | 0.951 | 0.981 | 0.88 | 0.632 | 0.84 | 0.857 | 0.884 | 0.747
2 | BEN | 0.694 | 0.786 | 0.761 | 0.857 | 0.761 | 0.773 | 0.694 | 0.528 | 0.756 | 0.915 | 0.26 | 0.234 | 0.4 | 0.378 | 0.332 | 0.228 | 0.371 | 0.402 | 0.326
3 | NCI-H1299 | – | – | – | – | – | 0.985 | 1 | 0.989 | 1.03 | 0.948 | – | – | – | – | – | – | – | – | –
4 | UMC-11 | – | 0.577 | 0.878 | 0.83 | 0.628 | 0.873 | 0.772 | 0.823 | 0.745 | 0.796 | 1.03 | 0.957 | 1.03 | 1.04 | 1.09 | 0.985 | 1.02 | 0.964 | 0.684
5 | NCI-H1755 | 0.463 | 0.469 | 0.545 | 0.439 | 0.714 | 1.03 | 0.855 | 0.97 | 0.887 | 0.886 | 0.441 | 0.65 | 0.33 | 0.394 | 0.258 | 0.489 | 0.528 | 0.442 | 0.752
6 | SK-LU-1 | 0.933 | 0.943 | 0.918 | 1.03 | 0.806 | 1.04 | 1.09 | 1.04 | 1.38 | 1.11 | 0.189 | 0.191 | 0.201 | 0.205 | 0.181 | 0.199 | 0.204 | 0.212 | 0.223
7 | NCI-H1793 | 0.69 | 0.862 | 0.713 | 0.687 | 0.802 | – | – | – | – | – | 0.198 | 0.265 | 0.174 | 0.127 | 0.155 | – | 0.15 | 0.171 | 0.145
8 | NCI-H1648 | – | 0.682 | 0.732 | 0.813 | 0.747 | – | – | – | – | – | – | – | – | – | – | – | – | – | –
9 | EBC-1 | – | – | – | – | – | 0.523 | 0.51 | 0.619 | 0.4 | 0.408 | – | – | – | – | – | – | – | – | –
10 | ABC-1 | – | – | – | – | – | 0.325 | 0.243 | 0.348 | 0.315 | 0.29 | 0.477 | – | 0.622 | 0.767 | 0.484 | 0.537 | 0.761 | 0.527 | 0.261
11 | SK-MES-1 | 1.02 | 1.03 | 1.02 | 0.987 | 1.02 | – | – | – | – | – | 0.664 | 0.721 | 0.639 | 0.324 | 0.229 | 0.84 | 0.865 | 0.609 | 0.757
12 | NCI-H522 | 0.965 | 1.02 | 1.04 | 0.911 | 0.878 | – | – | – | – | – | 1.09 | 1.04 | 1.01 | 1.11 | 1.42 | 1.39 | 1.01 | 1.28 | 1.19
13 | Calu-6 | – | – | – | – | – | 1.02 | 0.973 | 1.22 | 1 | 0.896 | – | – | – | – | – | – | – | – | –
14 | HCC-78 | 0.79 | 0.946 | 0.903 | 0.959 | 0.883 | 0.435 | 0.38 | 0.429 | 0.24 | 0.335 | – | – | – | – | – | – | – | – | –
15 | NCI-H358 | 0.156 | 0.188 | 0.175 | 0.162 | 0.176 | – | – | – | – | – | 0.285 | 0.37 | 0.319 | 0.007 | 0.29 | – | 0.269 | 0.482 | 0.254
16 | NCI-H1703 | – | – | – | – | – | 0.244 | 0.323 | 0.305 | 0.234 | 0.281 | – | – | – | – | – | – | – | – | –
17 | NCI-H1944 | 0.609 | 0.697 | 0.571 | 0.646 | 0.632 | – | – | – | – | – | 0.649 | 0.742 | 0.795 | 0.587 | 0.399 | 0.663 | 0.686 | 0.629 | 0.57
18 | NCI-H1395 | – | 0.841 | 0.776 | 0.812 | 0.894 | – | – | – | – | – | 0.684 | 0.721 | 0.603 | 0.514 | 0.453 | – | 0.792 | 0.859 | 0.528
19 | SW 900 | – | 0.487 | 0.453 | 0.464 | 0.47 | – | – | – | – | – | 0.18 | 0.167 | 0.153 | 0.132 | 0.148 | 0.166 | 0.164 | 0.183 | 0.17
20 | LK-2 | 0.168 | 0.245 | 0.236 | 0.325 | 0.196 | – | – | – | – | – | 0.17 | 0.2 | 0.187 | 0.214 | 0.207 | 0.18 | 0.191 | 0.168 | 0.177
21 | NCI-H727 | – | – | – | – | – | 0.827 | 0.829 | 1.03 | 0.737 | 0.893 | 0.345 | 0.315 | 0.303 | 0.257 | 0.363 | 0.314 | 0.283 | 0.236 | 0.379
22 | IA-LM | – | – | – | – | – | 0.915 | 1.02 | 1.04 | 0.869 | 0.735 | – | – | – | – | – | – | – | – | –
